The values below come from patent US8796284B2, “4-aminopyrimidine derivatives and their as as adenosine A2a receptor antagonists” (Palobiofarma, S.L., priority 2010, dated 2014).

hA2a receptors, sequence (P29274 whole entry): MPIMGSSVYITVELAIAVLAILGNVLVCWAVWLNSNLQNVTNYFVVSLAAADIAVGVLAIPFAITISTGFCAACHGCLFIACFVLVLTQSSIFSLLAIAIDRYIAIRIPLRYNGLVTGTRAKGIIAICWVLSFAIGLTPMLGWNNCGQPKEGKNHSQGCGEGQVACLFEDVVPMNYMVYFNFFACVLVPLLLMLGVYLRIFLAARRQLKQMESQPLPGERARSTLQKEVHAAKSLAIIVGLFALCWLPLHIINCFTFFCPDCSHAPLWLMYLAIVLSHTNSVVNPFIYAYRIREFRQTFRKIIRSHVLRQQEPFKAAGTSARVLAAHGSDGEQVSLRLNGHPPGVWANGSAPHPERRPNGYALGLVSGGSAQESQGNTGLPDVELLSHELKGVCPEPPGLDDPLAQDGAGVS
A2a adenosine receptor, sequence (P29274 whole entry): as above

The target of the first test is A2a adenosine receptor (Homo sapiens (Human), UniProt P29274). Briefly: Cyclic adenosine monophosphate (cAMP) production measurement in CHO-A2A cells. It is filed as cell-based. Conditions: 1 μM NECA, 30 μM rolipram, cAMP enzymeimmunoassay. Here is the method:
(§1) Concentration-response binding competition curves were carried out by assaying 6 different concentrations (range between 10 nm to 100 μM). […] IC50 values were obtained by fitting the data with non-linear regression, with Prism 2.1 software (GraphPad, San Diego, Calif.). Cyclic Adenosine Monophosphate Production Measurement.
These assays were performed at adenosine receptors transfected using a cAMP enzymeimmunoassay kit (Amersham Biosciences). CHO-A2A cells were seeded (10000 cells/well) in 96-well culture plates and incubated at 37° C. in an atmosphere with 5% CO2 in Dulbecco's Modified Eagle's Medium Nutrient Mixture F-12 (DMEM F-12), containing 10% Foetal Calf Serum (FCS) and 1% L-Glutamine. Cells were washed 3× with 200 μl assay medium (DMEM-F12 and 25 mM HEPES pH=7.4) and pre-incubated with assay medium containing 30 μM rolipram and test compounds at 37° C. for 15 min. 1 μM NECA was incubated for 15 min at 37° C. (total incubation time 30 min). Reaction was stopped with lysis buffer supplied in the kit and the enzymeimmunoassay was carried out for detection of intracellular cAMP at 450 nm in an Ultra Evolution detector (Tecan). Data were fitted by non-linear regression using GraphPad Prism v2.01 (GraphPad Software).
The Ki is the equilibrium dissociation constant of an inhibitor or competing ligand from its target. Read a low Ki as a stronger hold on the target. `Nc1nc(-n2cccn2)nc(NC2CC2)c1Br` [Example 8, 5-bromo-N^4-cyclopropyl-2-(1H-pyrazol-1-yl)pyrimidine-4,6-diamine] showed a Ki of 60 nM. In turn, `CN(C)c1nc(-n2cccn2)nc(N)c1Br` [Example 13, 5-bromo-N^4,N^4-dimethyl-2-(1H-pyrazol-1-yl)pyrimidine-4,6-diamine] came in with a Ki of 50 nM. The same measure, in the same setting: the result for `Nc1nc(-c2nccs2)nc(-c2nccs2)c1Br` [Example 93, 5-Bromo-2,6-di(thiazol-2-yl)pyrimidin-4-amine] reads 12 nM.

The target of another test is hA2a receptors (Homo sapiens (Human), UniProt P29274). Briefly: Adenosine A2a receptor subtype competition radioligand binding assay. Conditions: membranes from hA2a receptors transfected to HeLa cells, [3H]ZM241385 as radioligand, Cheng-Prusoff. On the procedure:
Pharmacological Activity Adenosine A2a Receptor Subtype Competition Radioligand Binding Assay
Human membranes from recombinant adenosine receptors were purchased from Receptor Biology, Inc. (USA)
Competition assays were carried out by incubation of membranes from hA2a receptors transfected to HeLa cells, [^3H]ZM241385 as radioligand, buffer (50 mM Tris-HCl (pH=7.4), 10 mM MgCl2, 1 mM EDTA, 2 units/ml adenosine deaminase), and unlabelled ligand in a total volume of 0.2 ml for 30 min at 25° C. NECA was used to determinate non-specific binding. Filter over Schleicher&Schuell GF/52 filters (pre-soaked 0.5% polyethylenimine) in a Brandel cell harvester. Unbound radioligand was removed with 3×250 μl ice-cold 50 mM Tris-HCl (pH=7.4), 10 mM MgCl and 1 mM EDTA.
as §1
The molecule `Nc1nc(-n2cccn2)nc(N2CCCC2)c1Br` [Example 3, 5-bromo-2-(1H-pyrazol-1-yl)-6-(pyrrolidin-1-yl)pyrimidin-4-amine] showed a Ki of 11 nM. The molecule `Nc1nc(-n2cccn2)nc(NC2CCCC2)c1Br` [Example 4, 5-bromo-N^4-cyclopentyl-2-(1H-pyrazol-1-yl)pyrimidine-4,6-diamine] gave a Ki of 6 nM.

On to `Nc1nc(-n2cccn2)nc(N2CCCCC2)c1Br` [Example 5, 5-bromo-6-(piperidin-1-yl)-2-(1H-pyrazol-1-yl)pyrimidin-4-amine], for which the affinity, expressed as Ki, was 14 nM. On the same count and under the same terms, the result for `Nc1nc(-n2cccn2)nc(NC2CC2)c1Br` [Example 8, 5-bromo-N^4-cyclopropyl-2-(1H-pyrazol-1-yl)pyrimidine-4,6-diamine] reads 18 nM; that for `Nc1nc(-n2cccn2)nc(N2CCC2)c1Br` [Example 9, 6-(azetidin-1-yl)-5-bromo-2-(1H-pyrazol-1-yl)pyrimidin-4-amine], 33 nM. The same measure, in the same setting: the result for `Nc1nc(-n2cccn2)nc(NC2CCC2)c1Br` [Example 10, 5-bromo-N^4-cyclobutyl-2-(1H-pyrazol-1-yl)pyrimidine-4,6-diamine] reads 21 nM; that for `CN(C)c1nc(-n2cccn2)nc(N)c1Br` [Example 13, 5-bromo-N^4,N^4-dimethyl-2-(1H-pyrazol-1-yl)pyrimidine-4,6-diamine], 35 nM. Consider `COC[C@H]1CCCN1c1nc(-n2cccn2)nc(N)c1Br` [Example 20, 5-bromo-6-((R)-2-(methoxymethyl)pyrrolidin-1-yl)-2-(1H-pyrazol-1-yl)pyrimidin-4-amine], for which the Ki is 14 nM. On the same count and under the same terms, then `CNc1nc(-n2cccn2)nc(N)c1Br` [Example 24, 5-bromo-N^4-methyl-2-(1H-pyrazol-1-yl)pyrimidine-4,6-diamine], with 16 nM. The same measure, in the same setting: then `Nc1nc(-n2cccn2)nc(NCC2CC2)c1Br` [Example 29, 5-bromo-N^4-(cyclopropylmethyl)-2-(1H-pyrazol-1-yl)pyrimidine-4,6-diamine], with 10 nM.

Molecule `CCSc1nc(-n2cccn2)nc(N)c1Br` [Example 36, 5-bromo-6-(ethylthio)-2-(1H-pyrazol-1-yl)pyrimidin-4-amine] displayed a Ki of 8 nM. On the same count and under the same terms, the result for `CC(C)Sc1nc(-n2cccn2)nc(N)c1Br` [Example 38, 5-bromo-6-(isopropylthio)-2-(1H-pyrazol-1-yl)pyrimidin-4-amine] reads 7 nM; that for `Nc1nc(-n2cccn2)nc(OCC(F)(F)F)c1Br` [Example 44, 6-(2,2,2-trifluoroethoxy)-5-bromo-2-(1H-pyrazol-1-yl)pyrimidin-4-amine], 14 nM. `Nc1nc(-n2cccn2)nc(-n2cccn2)c1Cl` [Example 46, 5-chloro-2,6-di-(1H-pyrazol-1-yl)pyrimidine-4-amine] came in with a Ki of 17 nM. The Ki values of the last two molecules are within 1.5-fold of each other. Same read-out and setting: the result for `N#Cc1c(N)nc(-n2cccn2)nc1-n1cccn1` [Example 48, 4-amino-2,6-di-(1H-pyrazol-1-yl)pyrimidine-5-carbonitrile] reads 7 nM; that for `Nc1nc(-c2nccs2)nc(-c2nccs2)c1Br` [Example 93, 5-Bromo-2,6-di(thiazol-2-yl)pyrimidin-4-amine], 1 nM.
